{"source": "patent US20060167099A1", "about": "“Use of compositions that increase glutamate receptor activity in treatment of brain injury” (priority 2004, published 2006)", "key": {"NMDAR [1]": {"tested_on": "NMDAR", "conditions": "NMDA 20 mg/kg i.p. 1 and 2 days after CHI; assessed 7 and 14 days postinjury (P=0.05 and 0.016)", "source_text": "Trauma Model. We used 8- to 12-week-old male Sabra mice (30-35 g) kept under controlled temperature and light conditions with food and water available ad libitum. The study was approved by the Institutional Animal Care Committee of the Hebrew University. Experimental CHI was induced by using a modified weight-drop device developed in our laboratory (Chen et al., J. Neurotrauma 13, 557-568 (1996); Yatziv et al., J. Cereb. Blood Flow Metab. 22, 971-978 (2002)). Briefly, after induction of ether anesthesia, a midline longitudinal incision was performed, the skin was retracted and the skull was exposed. The left anterior frontal area was identified and a Teflon tipped cone (2-mm diameter) was placed 1 mm lateral to the midline, in the midcoronal plane. The head was held in place manually and a 75-g weight was dropped on the cone from a height of 18 cm, resulting in a focal injury to the left hemisphere. After trauma, the mice received supporting oxygenation with 95% O2 for no longer than 2 min and were then returned to their cages. […]\n(§1) Drug Treatments. […] The three groups were repeatedly evaluated for neurobehavioral deficits over a 2-week period (see below). […] Cognitive function was evaluated in head-injured and intact […] administered with either NMDA 20 mg/kg or saline 24 and again 48 h postinjury and tested 14 days later for performance in the object recognition test (see below)."}, "NMDAR [2]": {"tested_on": "NMDAR", "assay": "Object recognition test 14 days after CHI", "type": "in vivo, mice", "conditions": "for Percent of exploration time at the novel object: 4 h after baseline; for Proportion of time exploring two objects at baseline: baseline with two identical objects", "source_text": "Trauma Model. We used 8- to 12-week-old male Sabra mice (30-35 g) kept under controlled temperature and light conditions with food and water available ad libitum. The study was approved by the Institutional Animal Care Committee of the Hebrew University. Experimental CHI was induced by using a modified weight-drop device developed in our laboratory (Chen et al., J. Neurotrauma 13, 557-568 (1996); Yatziv et al., J. Cereb. Blood Flow Metab. 22, 971-978 (2002)). Briefly, after induction of ether anesthesia, a midline longitudinal incision was performed, the skin was retracted and the skull was exposed. The left anterior frontal area was identified and a Teflon tipped cone (2-mm diameter) was placed 1 mm lateral to the midline, in the midcoronal plane. The head was held in place manually and a 75-g weight was dropped on the cone from a height of 18 cm, resulting in a focal injury to the left hemisphere. After trauma, the mice received supporting oxygenation with 95% O2 for no longer than 2 min and were then returned to their cages. Sham controls received anesthesia and skin incision only. For autoradiographic studies, groups of four to five animals per time point were killed 15 min, 1, 4, 8, or 24 h, or 7 days postinjury and brains were quickly removed and frozen on dry ice.\nas §1\nEvaluation of Performance in the Object Recognition Test. The object recognition test was performed as originally described by Ennaceur and Delacour (Ennaceur & Delacour, Behav. Brain Res. 31, 47-59 (1988)). In the first part of the test (14 days after CHI) mice were placed in the testing cage (a glass aquarium-like transparent box of 60×60 cm) for 1 h habituation. On the following day they were put back into the same cage with two identical objects. The cumulative time spent by the mouse at each of the objects was recorded manually during a 5-min interval by an observer blinded to the treatment received. Four hours later, the mice were reintroduced into the cage, where one of the two objects was replaced by a new one. The time (of 5 min total) spent at each of the objects was recorded. The basic measure is the percent of the total time spent by mice in exploring an object during the testing period, whereby normal healthy rodents will spend relatively more time exploring a new object than a familiar, i.e., “memorized” object."}, "intact mice": {"tested_on": "intact mice", "assay": "NMDA dose-response experiment in intact mice (tolerability)", "conditions": "i.p."}}, "note": "“Also recorded” adds a separate entry of the source."}
{"compound": "CN[C@H](CC(=O)O)C(=O)O", "note": "[NMDA, N-methyl-D-aspartate]", "values": [{"measurement": "dNSS (extent of neurological recovery) compared to vehicle-treated CHI mice", "setting": "NMDAR [1]", "value": "significantly higher; also recorded: significantly accelerated"}, {"measurement": "Object recognition performance compared to vehicle-treated CHI animals", "setting": "NMDAR [2]; CHI mice, NMDA 20 mg/kg 24 and 48 h postinjury, 14 days after CHI (P<0.0001)", "value": "significantly higher percentage; also recorded: significantly better"}, {"measurement": "Percent of exploration time at the novel object", "setting": "NMDAR [2]; CHI mice, NMDA 20 mg/kg 24 and 48 h postinjury, tested 14 days after CHI", "value": "≈ 70%"}, {"measurement": "Proportion of time exploring two objects at baseline", "setting": "NMDAR [2]; CHI+NMDA group", "value": "≈ 50%"}, {"measurement": "Effect on object recognition performance of intact (naive) animals", "setting": "NMDAR [2]; intact animals, NMDA 20 mg/kg", "value": "no effect"}, {"measurement": "Percent of exploration time at the novel object", "setting": "NMDAR [2]; intact mice treated with NMDA 20 mg/kg", "value": "≈ 70%"}, {"measurement": "Proportion of time exploring two objects at baseline", "setting": "NMDAR [2]; naive+NMDA group", "value": "≈ 50%"}, {"measurement": "Doses at which significant mortality was observed", "setting": "intact mice; doses tested between 20 and 100 mg/kg", "value": "above 60 mg/kg"}, {"measurement": "Behavioural effects and mortality at the lowest dose", "setting": "intact mice; lowest dose of 20-100 mg/kg range (20 mg/kg)", "value": "hyperactivity and some stereotypy but no convulsions or mortality"}]}
